Experimental data: PubChem BioAssay AID248 (DTP/NCI, 2004)
Several values for one entry are separate records, joined by “and”; a condition that tells them apart may be missing. Equal values may be shown once. Toxic doses and inconclusive results are not listed. No stated cut-off is given here; in the data, active means T/C of 150% or more; inactive means T/C below 125%.

Test system: L1210 leukemia ip in BDF1 mice, survival T/C
Experiment: NCI In Vivo Anticancer Drug Screen. Data for tumor model L1210 Leukemia (intraperitoneal) in B6D2F1 (BDF1) mice
Settings: endpoint: mean survival time, higher = longer survival
In short: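 Mice bearing the transplanted tumor received compound or vehicle. Survival of the treated group was divided by that of the vehicle-treated control group to give the ratio.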

[1] = dose: 100.0 mg/kg/injection, schedule: Q01DX009 (ip), vehicle: saline
[2] = dose: 200.0 mg/kg/injection, schedule: Q01DX009 (ip), vehicle: saline
[3] = dose: 400.0 mg/kg/injection, schedule: Q01DX009 (ip), vehicle: saline
[4] = dose: 100.0 mg/kg/injection, schedule: Q01DX001 (ip), vehicle: saline
[5] = dose: 50.0 mg/kg/injection, schedule: Q01DX009 (ip), vehicle: saline with Tween-80
[6] = dose: 100.0 mg/kg/injection, schedule: Q04DX003 (ip), vehicle: saline with Tween-80
[7] = dose: 200.0 mg/kg/injection, schedule: Q04DX003 (ip), vehicle: saline with Tween-80
[8] = dose: 400.0 mg/kg/injection, schedule: Q04DX003 (ip), vehicle: saline with Tween-80
[9] = dose: 100.0 mg/kg/injection, schedule: Q01DX001 (ip), vehicle: carboxymethylcellulose (CMC)
[10] = dose: 200.0 mg/kg/injection, schedule: Q01DX001 (ip), vehicle: carboxymethylcellulose (CMC)
[11] = dose: 400.0 mg/kg/injection, schedule: Q01DX001 (ip), vehicle: carboxymethylcellulose (CMC)

Measured: T/C

CCCCCCC(=O)/C=C\c1ccccc1
inactive: dose: 100.0 mg/kg/injection, schedule: Q01DX001 (sc), vehicle: other 94 % of control | dose: 200.0 mg/kg/injection, schedule: Q01DX001 (sc), vehicle: other 91 % of control | dose: 400.0 mg/kg/injection, schedule: Q01DX001 (sc), vehicle: other 100 % of control

CN(CCSSCCN(C)C(N)=S)C(N)=S
inactive: dose: 75.0 mg/kg/injection, schedule: Q04DX003 (ip), vehicle: saline 96 % of control | dose: 150.0 mg/kg/injection, schedule: Q04DX003 (ip), vehicle: saline 87 % of control | dose: 300.0 mg/kg/injection, schedule: Q04DX003 (ip), vehicle: saline 96 % of control

CCOC(=O)c1cnc(SC)nc1Nc1cccc(OC)c1
inactive: dose: 100.0 mg/kg/injection, schedule: Q04DX003 (ip), vehicle: Klucel (hydroxypropylcellulose) (HPC) 108 % of control | dose: 200.0 mg/kg/injection, schedule: Q04DX003 (ip), vehicle: Klucel (hydroxypropylcellulose) (HPC) 110 % of control | dose: 400.0 mg/kg/injection, schedule: Q04DX003 (ip), vehicle: Klucel (hydroxypropylcellulose) (HPC) 101 % of control

CC(C)C1CCC(C)(Cl)C2CCC(C)(Cl)CC12 (configuration not stated)
inactive: [1] 96 % of control | [2] 91 % of control | [3] 89 % of control

Cc1ccc(N=Nc2c(C)nn(C(N)=S)c2C)cc1
inactive: dose: 75.0 mg/kg/injection, schedule: Q01DX001 (ip), vehicle: other 100 % of control | dose: 150.0 mg/kg/injection, schedule: Q01DX001 (ip), vehicle: other 103 % of control

CC(C)(NC(=O)NCCCl)c1ccccc1
inactive: [4] 96 % of control

CC(=O)NC(C(=O)O)C(C)C (configuration not stated)
inactive: [4] 97 % of control | dose: 200.0 mg/kg/injection, schedule: Q01DX001 (ip), vehicle: saline 87 % of control | dose: 400.0 mg/kg/injection, schedule: Q01DX001 (ip), vehicle: saline 99 % of control

Cc1cc(C(=O)NNC(C)Cc2ccccc2)no1 (configuration not stated)
inactive: dose: 4.6 mg/kg/injection, schedule: Q01DX009 (ip), vehicle: Klucel (hydroxypropylcellulose) (HPC) 94 % of control | dose: 9.3 mg/kg/injection, schedule: Q01DX009 (ip), vehicle: Klucel (hydroxypropylcellulose) (HPC) 94 % of control | dose: 18.75 mg/kg/injection, schedule: Q01DX009 (ip), vehicle: Klucel (hydroxypropylcellulose) (HPC) 97 % of control | dose: 37.5 mg/kg/injection, schedule: Q01DX009 (ip), vehicle: Klucel (hydroxypropylcellulose) (HPC) 97 % of control

Cc1cc([N+](=O)[O-])ccc1N=O
inactive: dose: 12.5 mg/kg/injection, schedule: Q01DX009 (ip), vehicle: saline with Tween-80 101 % of control | dose: 25.0 mg/kg/injection, schedule: Q01DX009 (ip), vehicle: saline with Tween-80 102 % of control | [5] 98 % of control | [6] 98 % of control | [7] 100 % of control | [8] 100 % of control

N#CC12OC1(C#N)C(=O)c1ccccc1C2=O (configuration not stated)
inactive: dose: 75.0 mg/kg/injection, schedule: Q01DX001 (ip), vehicle: Klucel (hydroxypropylcellulose) (HPC) 92 % of control

NC(N)=NC(N)=Nc1ccc([As](=O)(O)O)c(O)c1
inactive: dose: 25.0 mg/kg/injection, schedule: Q01DX009 (ip), vehicle: saline 101 % of control | dose: 40.0 mg/kg/injection, schedule: Q01DX009 (ip), vehicle: Klucel (hydroxypropylcellulose) (HPC) 108 % of control | dose: 50.0 mg/kg/injection, schedule: Q01DX009 (ip), vehicle: saline 98 % of control | dose: 80.0 mg/kg/injection, schedule: Q01DX009 (ip), vehicle: Klucel (hydroxypropylcellulose) (HPC) 101 % of control | [1] 108 % of control | dose: 160.0 mg/kg/injection, schedule: Q01DX009 (ip), vehicle: Klucel (hydroxypropylcellulose) (HPC) 104 % of control

O=S(=O)(O/N=C1\N=C(NOS(=O)(=O)c2ccccc2)c2ccccc21)c1ccccc1
inactive: dose: 100.0 mg/kg/injection, schedule: Q01DX001 (ip), vehicle: saline with Tween-80 87 % of control and 92 % of control | dose: 100.0 mg/kg/injection, schedule: Q04DX002 (ip), vehicle: saline with Tween-80 102 % of control and 90 % of control | [6] 101 % of control | dose: 200.0 mg/kg/injection, schedule: Q01DX001 (ip), vehicle: saline with Tween-80 97 % of control and 91 % of control | dose: 200.0 mg/kg/injection, schedule: Q04DX002 (ip), vehicle: saline with Tween-80 98 % of control and 92 % of control | [7] 94 % of control | dose: 400.0 mg/kg/injection, schedule: Q01DX001 (ip), vehicle: saline with Tween-80 87 % of control and 92 % of control | dose: 400.0 mg/kg/injection, schedule: Q04DX002 (ip), vehicle: saline with Tween-80 112 % of control and 87 % of control | [8] 92 % of control

O=C(NCCCl)NC1(C(=O)O)CCCC1
inactive: dose: 100.0 mg/kg/injection, schedule: Q01DX001 (ip), vehicle: Klucel (hydroxypropylcellulose) (HPC) 98 % of control | dose: 200.0 mg/kg/injection, schedule: Q01DX001 (ip), vehicle: Klucel (hydroxypropylcellulose) (HPC) 107 % of control | dose: 400.0 mg/kg/injection, schedule: Q01DX001 (ip), vehicle: Klucel (hydroxypropylcellulose) (HPC) 98 % of control

CSCC(N)CO (configuration not stated)
inactive: [1] 94 % of control | dose: 100.0 mg/kg/injection, schedule: Q04DX003 (ip), vehicle: saline 100 % of control | [2] 100 % of control | dose: 200.0 mg/kg/injection, schedule: Q04DX003 (ip), vehicle: saline 103 % of control | [3] 100 % of control | dose: 400.0 mg/kg/injection, schedule: Q04DX003 (ip), vehicle: saline 103 % of control

CC(=O)OC1CCC2(C)C(=CCC3C2CCC2(C)C3CC3C(c4ccccc4Cl)=NN(c4ccccc4)C32C#N)C1 (configuration not stated)
inactive: dose: 100.0 mg/kg/injection, schedule: Q04DX002 (ip), vehicle: Klucel (hydroxypropylcellulose) (HPC) 95 % of control | dose: 200.0 mg/kg/injection, schedule: Q04DX002 (ip), vehicle: Klucel (hydroxypropylcellulose) (HPC) 95 % of control | dose: 400.0 mg/kg/injection, schedule: Q04DX002 (ip), vehicle: Klucel (hydroxypropylcellulose) (HPC) 95 % of control

Cc1ccc(N=Cc2ccccc2O)cc1.[Co]
inactive: dose: 100.0 mg/kg/injection, schedule: Q01DX001 (ip), vehicle: other 102 % of control | dose: 200.0 mg/kg/injection, schedule: Q01DX001 (ip), vehicle: other 98 % of control | dose: 400.0 mg/kg/injection, schedule: Q01DX001 (ip), vehicle: other 110 % of control

COC1=CCC2=C(C1)CC(C)O2 (configuration not stated)
inactive: dose: 100.0 mg/kg/injection, schedule: Q04DX003 (ip), vehicle: acetone 93 % of control | dose: 200.0 mg/kg/injection, schedule: Q04DX003 (ip), vehicle: acetone 102 % of control | dose: 400.0 mg/kg/injection, schedule: Q04DX003 (ip), vehicle: acetone 93 % of control

C(=N/N=C/c1ccccn1)/c1cccnc1
inactive: [9] 94 % of control | [10] 96 % of control | [11] 96 % of control

COC(=O)Nc1nc2ccccc2[nH]1
inactive: [5] 97 % of control | [9] 94 % of control | dose: 100.0 mg/kg/injection, schedule: Q01DX009 (ip), vehicle: saline with Tween-80 101 % of control | [6] 94 % of control | [10] 97 % of control | dose: 200.0 mg/kg/injection, schedule: Q01DX009 (ip), vehicle: saline with Tween-80 97 % of control | [7] 103 % of control | [11] 100 % of control | dose: 400.0 mg/kg/injection, schedule: Q01DX009 (ip), vehicle: saline with Tween-80 116 % of control | [8] 105 % of control

COc1ccc(CCl)cc1C(=O)O
inactive: dose: 75.0 mg/kg/injection, schedule: Q01DX001 (ip), vehicle: saline 86 % of control | dose: 150.0 mg/kg/injection, schedule: Q01DX001 (ip), vehicle: saline 91 % of control
